Key:
[1] = molecular target: T1, Metabotropic glutamate receptor 3 (Homo sapiens, UniProt Q14832); assay: Antagonist activity at human recombinant mGlu3 receptor stably expressed in golden hamster AV12 cells co-expressing rat EAAT1 assessed as reduction in DCG IV-induced inhibition of forskolin-stimulated cAMP accumulation preincubated for 20 mins followed by incubation with cAMP-d2 conjugate and anti-cAMP cryptate for 1 hr by HTRF assay; type: functional, cell-based
[2] = molecular target: T1, Metabotropic glutamate receptor 3; assay: Displacement of [3H]-LY459477 from recombinant human mGlu3 receptor expressed in hamster AV12 cell membranes co-expressing rat EAAT1 incubated for 90 mins by top count scintillation method; set-up: species or system Cell membrane
[3] = molecular target: T2, Metabotropic glutamate receptor 2 (Homo sapiens, UniProt Q14416)
Description: Displacement of [3H]-LY459477 from recombinant human mGlu2 receptor expressed in hamster AV12 cell membranes co-expressing rat EAAT1 incubated for 90 mins by top count scintillation method

[4] = molecular target: T2, Metabotropic glutamate receptor 2; remark: listed apart in the source
Description: Antagonist activity at human recombinant mGlu2 receptor stably expressed in golden hamster AV12 cells co-expressing rat EAAT1 assessed as reduction in DCG IV-induced inhibition of forskolin-stimulated cAMP accumulation preincubated for 20 mins followed by incubation with cAMP-d2 conjugate and anti-cAMP cryptate for 1 hr by HTRF assay

[5] = molecular target: T2, Metabotropic glutamate receptor 2; assay: […] at mGlu2 (unknown origin)
[6] = molecular target: T1, Metabotropic glutamate receptor 3; assay: […] at mGlu3 (unknown origin)

T1 sequence (Q14832 whole entry): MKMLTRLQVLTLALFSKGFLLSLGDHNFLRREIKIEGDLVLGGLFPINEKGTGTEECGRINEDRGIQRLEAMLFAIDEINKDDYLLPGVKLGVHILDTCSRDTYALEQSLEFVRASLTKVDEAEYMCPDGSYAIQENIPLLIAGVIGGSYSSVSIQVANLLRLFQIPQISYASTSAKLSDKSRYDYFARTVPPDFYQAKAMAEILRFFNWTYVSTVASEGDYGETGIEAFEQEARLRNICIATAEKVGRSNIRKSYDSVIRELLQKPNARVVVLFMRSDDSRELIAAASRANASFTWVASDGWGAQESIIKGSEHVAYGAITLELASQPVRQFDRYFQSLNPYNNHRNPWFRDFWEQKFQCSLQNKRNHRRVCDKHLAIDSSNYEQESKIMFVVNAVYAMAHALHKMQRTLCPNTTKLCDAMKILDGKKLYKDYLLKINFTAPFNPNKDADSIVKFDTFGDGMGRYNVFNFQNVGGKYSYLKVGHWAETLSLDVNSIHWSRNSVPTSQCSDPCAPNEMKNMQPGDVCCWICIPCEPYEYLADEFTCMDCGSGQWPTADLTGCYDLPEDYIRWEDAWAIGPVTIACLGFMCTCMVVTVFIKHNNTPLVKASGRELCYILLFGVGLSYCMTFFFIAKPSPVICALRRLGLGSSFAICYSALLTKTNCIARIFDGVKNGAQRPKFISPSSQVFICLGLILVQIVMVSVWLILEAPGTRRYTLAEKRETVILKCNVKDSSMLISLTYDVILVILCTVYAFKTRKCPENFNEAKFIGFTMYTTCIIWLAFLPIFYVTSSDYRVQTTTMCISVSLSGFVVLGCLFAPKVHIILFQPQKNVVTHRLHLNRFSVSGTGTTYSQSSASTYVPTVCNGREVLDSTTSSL
T2 sequence (Q14416 whole entry): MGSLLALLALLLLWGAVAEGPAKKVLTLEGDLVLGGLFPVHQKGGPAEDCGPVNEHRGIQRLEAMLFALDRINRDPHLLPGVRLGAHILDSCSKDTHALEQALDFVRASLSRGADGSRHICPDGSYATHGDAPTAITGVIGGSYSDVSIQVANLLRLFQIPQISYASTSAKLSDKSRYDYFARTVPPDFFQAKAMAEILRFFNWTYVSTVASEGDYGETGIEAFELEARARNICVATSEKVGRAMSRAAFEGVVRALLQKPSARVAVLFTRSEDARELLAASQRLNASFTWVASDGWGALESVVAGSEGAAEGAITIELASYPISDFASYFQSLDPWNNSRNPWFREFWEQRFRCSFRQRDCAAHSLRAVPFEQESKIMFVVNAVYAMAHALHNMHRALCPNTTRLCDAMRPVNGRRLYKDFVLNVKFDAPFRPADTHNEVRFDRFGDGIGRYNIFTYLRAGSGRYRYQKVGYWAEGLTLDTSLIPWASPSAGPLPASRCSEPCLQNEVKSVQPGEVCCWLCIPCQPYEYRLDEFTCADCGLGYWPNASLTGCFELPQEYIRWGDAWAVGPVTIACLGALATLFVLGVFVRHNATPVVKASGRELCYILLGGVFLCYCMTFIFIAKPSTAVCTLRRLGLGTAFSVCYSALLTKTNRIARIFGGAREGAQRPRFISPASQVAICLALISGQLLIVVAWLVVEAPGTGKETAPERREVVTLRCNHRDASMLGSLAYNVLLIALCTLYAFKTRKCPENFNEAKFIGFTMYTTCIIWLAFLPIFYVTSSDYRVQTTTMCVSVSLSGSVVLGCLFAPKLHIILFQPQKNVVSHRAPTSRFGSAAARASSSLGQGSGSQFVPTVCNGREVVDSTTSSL

SMILES	IC50 [1] [nM]	Ki [2] [nM]	Ki [3] [nM]	IC50 [4] [nM]	IC50 [5] [nM]	IC50 [6] [nM]
Cc1cc(SC[C@@H]2[C@@H](Sc3nc[nH]n3)[C@H]3[C@H](C(=O)O)[C@H]3[C@]2(N)C(=O)O)ccc1F			5.2	6.6		
N[C@]1(C(=O)O)[C@@H]2[C@@H](C(=O)O)[C@@H]2[C@H](O)[C@@H]1CSc1ccccc1	2410	251				
N[C@]1(C(=O)O)[C@@H]2[C@@H](C(=O)O)[C@@H]2[C@@H](O)[C@@H]1CSc1ccccc1	2160	238				
Cc1cc(SC[C@@H]2[C@@H](O)[C@H]3[C@H](C(=O)O)[C@H]3[C@]2(N)C(=O)O)ccc1F			8.9	17.2		
N[C@@]1(C(=O)O)CC[C@H]2[C@H](C(=O)O)[C@H]21					7	27.9

Further molecules by falling IC50 [1], results first:

IC50 [1] [nM]	Ki [2] [nM]	Ki [3] [nM]	IC50 [4] [nM]	IC50 [5] [nM]	IC50 [6] [nM]	SMILES
547	26					N[C@]1(C(=O)O)[C@@H]2[C@@H](C(=O)O)[C@@H]2[C@@H](O)[C@H]1CSc1ccccc1
272	25.1	43.7	76.2			N[C@]1(C(=O)O)[C@@H]2[C@@H](C(=O)O)[C@@H]2[C@H](O)[C@H]1CSc1cccc(F)c1
202	19.2					N[C@]1(C(=O)O)[C@@H]2[C@@H](C(=O)O)[C@@H]2[C@H](O)[C@H]1CSc1ccccc1
62.3	16.3	20.5	49.4			N[C@]1(C(=O)O)[C@@H]2[C@@H](C(=O)O)[C@@H]2[C@H](O)[C@H]1CSCc1ccc(Cl)c(Cl)c1
41.9	6.8	10.4	20.2			N[C@]1(C(=O)O)[C@@H]2[C@@H](C(=O)O)[C@@H]2[C@H](O)[C@H]1CSc1ccc(F)cc1
